Source: publication PMC9798632, “Tailor-made alkaliphilic and thermostable fungal laccases for industrial wood processing” (Biotechnology for Biofuels and Bioproducts, 2022)

Key:
Assay in all cases: spectrophotometric oxidation at […] nm, hyperbolic fit
Format in all cases: biochemical
[1] = molecular target: T1, RY2 laccase (parent of Li9, Li10, Li11, C-LeB, Mol2, Mol3) (basidiomycete PM1, UniProt Q12571, N284V/F413N/F417I/F475P/A479L/F481M, form not given); settings: 100 mM Tris-HCl pH 8, room temperature
T1 construct: one polypeptide; engineered from 7D5 (PDB 6H5Y, used as model template), which came from DNA shuffling of evolved PM1L and P. cinnabarinus laccases; RY2 residues: D263 (from N263), P454, S207, S291, V413, D457, A461, I468; evolved alpha-factor leader a9H2 as signal peptide; host S. cerevisiae BJ5465, purified by HPLC
T1 sequence (Q12571 entry or part of it N284V/F413N/F417I/F475P/A479L/F481M, form open): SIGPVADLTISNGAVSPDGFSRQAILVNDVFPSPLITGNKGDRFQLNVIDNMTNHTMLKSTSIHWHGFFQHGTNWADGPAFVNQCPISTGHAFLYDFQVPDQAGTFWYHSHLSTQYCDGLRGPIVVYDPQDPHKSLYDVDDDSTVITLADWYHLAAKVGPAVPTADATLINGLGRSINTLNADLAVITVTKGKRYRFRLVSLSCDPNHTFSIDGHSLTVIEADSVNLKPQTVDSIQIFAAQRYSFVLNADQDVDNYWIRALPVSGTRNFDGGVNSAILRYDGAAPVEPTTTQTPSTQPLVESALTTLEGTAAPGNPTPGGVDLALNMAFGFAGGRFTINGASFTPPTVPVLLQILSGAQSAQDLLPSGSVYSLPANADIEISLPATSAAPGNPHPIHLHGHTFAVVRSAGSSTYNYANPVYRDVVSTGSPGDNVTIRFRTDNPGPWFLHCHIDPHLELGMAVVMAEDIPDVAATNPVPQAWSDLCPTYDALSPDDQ

[2] = molecular target: T2, RY2 laccase (parent of Li9, Li10, Li11, C-LeB, Mol2, Mol3) (basidiomycete PM1, UniProt Q12571, N284D/F475P, form not given); settings: pH 5, room temperature
T2 construct: one polypeptide; engineered from 7D5 (PDB 6H5Y, used as model template), which came from DNA shuffling of evolved PM1L and P. cinnabarinus laccases; RY2 residues: D263 (from N263), P454, S207, S291, V413, D457, A461, I468; evolved alpha-factor leader a9H2 as signal peptide; host S. cerevisiae BJ5465, purified by HPLC
T2 sequence (Q12571 entry or part of it N284D/F475P, form open): as the sequence (Q12571 entry or part of it N284V/F413N/F417I/F475P/A479L/F481M, form open) above, with V263D, N392F, I396F, L458A, M460F counted along it

[3] = molecular target: T3, RY2 laccase (parent of Li9, Li10, Li11, C-LeB, Mol2, Mol3) (basidiomycete PM1, UniProt Q12571, N284D/F413N/F417I/F475P/F481M, form not given); settings: 100 mM Tris-HCl pH 8, room temperature
T3 construct: one polypeptide; engineered from 7D5 (PDB 6H5Y, used as model template), which came from DNA shuffling of evolved PM1L and P. cinnabarinus laccases; RY2 residues: D263 (from N263), P454, S207, S291, V413, D457, A461, I468; evolved alpha-factor leader a9H2 as signal peptide; host S. cerevisiae BJ5465, purified by HPLC
T3 sequence (Q12571 entry or part of it N284D/F413N/F417I/F475P/F481M, form open): as the sequence (Q12571 entry or part of it N284V/F413N/F417I/F475P/A479L/F481M, form open) above, with V263D, L458A counted along it

[4] = molecular target: T4, RY2 laccase (parent of Li9, Li10, Li11, C-LeB, Mol2, Mol3) (basidiomycete PM1, UniProt Q12571, N284V/F413N/F417I/F475P/F481M, form not given); settings: 100 mM Tris-HCl pH 8, room temperature
T4 construct: one polypeptide; engineered from 7D5 (PDB 6H5Y, used as model template), which came from DNA shuffling of evolved PM1L and P. cinnabarinus laccases; RY2 residues: D263 (from N263), P454, S207, S291, V413, D457, A461, I468; evolved alpha-factor leader a9H2 as signal peptide; host S. cerevisiae BJ5465, purified by HPLC
T4 sequence (Q12571 entry or part of it N284V/F413N/F417I/F475P/F481M, form open): as the sequence (Q12571 entry or part of it N284V/F413N/F417I/F475P/A479L/F481M, form open) above, with L458A counted along it

[5] = molecular target: T5, RY2 laccase (parent of Li9, Li10, Li11, C-LeB, Mol2, Mol3) (basidiomycete PM1, UniProt Q12571, N284V/F413N/F417I/V445T/S450T/D462N/F475P/A479L/F481M, form not given); settings: 100 mM Tris-HCl pH 8, room temperature
T5 construct: one polypeptide; engineered from 7D5 (PDB 6H5Y, used as model template), which came from DNA shuffling of evolved PM1L and P. cinnabarinus laccases; RY2 residues: D263 (from N263), P454, S207, S291, V413, D457, A461, I468; evolved alpha-factor leader a9H2 as signal peptide; host S. cerevisiae BJ5465, purified by HPLC
T5 sequence (Q12571 entry or part of it N284V/F413N/F417I/V445T/S450T/D462N/F475P/A479L/F481M, form open): as the sequence (Q12571 entry or part of it N284V/F413N/F417I/F475P/A479L/F481M, form open) above, with V424T, S429T, D441N counted along it

With `COc1cccc(OC)c1O` [2,6-dimethoxyphenol] the Km [1] was 1700 ± 100 µM, the Km [2] was 260 ± 40 µM and the Km [3] was 20000 ± 2400 µM. For the same molecule, the Km [4] was 1500 ± 100 µM and the Km [5] was 1700 ± 200 µM.
